Experimental data from patent US20230255906A1, “Targeting Serpin B9 in Cancer” (The Brigham and Women`s Hospital, Inc., priority 2020, published 2023).

Columns and labels:
[1] = molecular target: T1, Sb9-GrB complex (Mus musculus, UniProt F7A2V8); assay: Western blot of Sb9-GrB complex in B16 cells; assay type: cell-based; conditions: 50 μM, 200 μM, 600 μM, concentration-dependent
T1 construct: endogenous in cells
Procedure: FIG. 4G. […] Sb9-GrB complex (com), unbound Sb9 (mono), and complex degradation products or cleaved Sb9 (deg) are indicated by arrows. GAPDH was used as a loading control for protein normalization.
Lysates of cells and tissues were measured using the Bradford assay. Equal amounts of protein were separated by SDS-PAGE and transferred to a PVDF membrane. The membranes were immunoblotted with the following specific antibodies: anti-rabbit IgG-HRP (Sigma-Aldrich), anti-rat IgG-HRP (Sigma-Aldrich), and anti-GAPDH (Sigma-Aldrich), using standard protocols. The blots were developed with West Dura chemiluminescent substrates using a Bio-Rad ChemiDoc imaging system.

[2] = test system: LAMP1; assay: LAMP1 / lysosome fluorescence micrographs; assay type: cell-based
Source text: FIG. 4H. […] DAPI was used to counterstain the cell nuclei. Scale bar: 10 μm.
Lysosomes have a pH of 4 and are the most acidic compartment within cells. Therefore, it was hypothesized that lysosomes contain an environment that is conducive for the binding between the compound of Formula (III) and Sb9. Both Sb9 and GrB were co-localized in the lysosomes of B16 melanoma cells (FIG. 4F).

[3] = test system: 4T1 breast tumors; assay: 4T1 breast tumor model in BALB/c mice; assay type: in vivo, mouse
Procedure: (§1) Mice were anesthetized with isoflurane, and tumor cell lines (B16, A375, and 4T1) were gently injected subcutaneously in the flanks or mammary glands of mice. One hundred thousand cells (1×10^5 cells) were injected per mouse for most of the experiments. However, twenty-five thousand cells (25×10^3 cells) were injected per mouse for the experiments using the compound of Formula (III). Upon 4 hrs post-implantation, 300 μg of the compound of Formula (III) was administered twice a day intraperitoneally for 14 days. Tumor growth was monitored three times per week by digital caliper (Fisherbrand™ Traceable™ Digital Calipers).
Sb9 is highly expressed in human primary breast tumor cells (FIG. 6D) and in the stromal cells within the TME (FIGS. 6D-6E). Whether the compound of Formula (III) could be used to treat mice implanted with 4T1 breast tumor cells was therefore determined. […] Treatment with the compound of Formula (III) increased the median survival time (MST) of mice bearing 4T1 breast tumors and receiving treatment with the compound of Formula (III) as compared to mice bearing 4T1 breast tumors and not receiving treatment (MST=28 days vs MST=22 days, respectively) (FIG. 6G).
For mouse Breast Cancer model, 1×10^5 4T1 cells were subcutaneously implanted into the fourth mammary pad of BABL/c mice, and mice were separated randomly into three groups: Control, compound of Formula (I), and compound of Formula (II). In the compound of Formula (I) group, mice were treated with the compound of Formula (I) for 14 days consecutively ([…], i.p, twice a day). In the compound of Formula (II) group, mice were administrated the compound of Formula (II) 14 days consecutively (300 μg/mouse, i.p, twice a day). Tumor sizes were measured every 3 days from day 5 post-tumor implantation and calculated with formula length×width^2/2.

[4] = molecular target: MBP (Escherichia coli, UniProt P0AEX9); assay: SPR negative control channel; assay type: binding
Procedure: FIG. 4B. Sensorgrams of compounds 3,4-dihydroxybenzoic acid (top), 3-oxo-1-indancarboxylic acid (middle), and the compound of Formula (III) (bottom) show the binding of 3,4-dihydroxybenzoic acid and the compound of Formula (III) to Sb9 (top), but not to MBP (bottom) by Surface Plasmon Resonance (SPR).
All assays were run at 25° C. on a BiOptix 404pi. An NTA biosensor chip was used in this study to pre-concentrate 3 μM MBP-Sb9 via an N-terminal His-tag. MBP-Sb9 was covalently immobilized with EDC/NHS in 20 mM HEPES pH 8.0, 150 mM NaCl, 0.05% Tween-20, 5 mM β-ME to 10,000 to 15,000 RUs. MBP was similarly immobilized on a separate channel as a negative control.

[5] = test system: B16-WT mouse melanoma tumors; assay: B16 melanoma tumor model in C57BL/6 mice; assay type: in vivo
Procedure: as §1
The anti-tumor activity of the compound of Formula (III) in vivo was assessed. […] Treatment with the compound of Formula (III) increased the median survival time (MST) of mice bearing B 16-WT mouse melanoma tumors and receiving treatment with the compound of Formula (III) as compared to mice bearing B16-WT melanoma tumors and not receiving treatment (MST=39 days vs MST=26 days, respectively) (FIG. 51B). Next, the effect of the compound of Formula (III) on tumor immunity was examined.
The efficacy of the compound of Formula (III) was assessed in C57BL/6J mice (FIG. 18). B16 mouse melanoma cells were implanted subcutaneously into the right flanks of C57BL/6J mice, and the mice were randomized into three groups: (1) no treatment (control), (2) treatment with anti-PD1, and (3) treatment with Formula (III). The mice in the anti-PD1 group received 200 μg of anti-PD1 iv every 3 days, and those in the Formula (III) group received 300 μg of Formula (III) twice a day consecutively for 14 days.
A survival study using the compound of Formula (IV) in mice harboring B16 melanoma was performed. Mice implanted with B16 tumors were treated with the compound of Formula (IV) (n=8) and compared to a control group having B16 tumors and not receiving treatment with the compound of Formula (IV) (n=8).

[6] = test system: MSC-WT cells; assay: ECM fiber production by mesenchymal stem cells; assay type: cell-based, mouse
Procedure: Isolation and harvest of murine MSCs from either C57BL/6-WT mice or Sb9 KO mice were performed according to the protocol as described previously (Zhu et al., 2010).
To investigate the effect of the compound of Formula (III) on the tumor stroma, MSC-WT cells were treated with the compound of Formula (III) for 48 hrs.

[7] = test system: B16-Sb9 KO melanoma cells; assay: Apoptosis by flow cytometry (Annexin-V, viability dye) in Sb9 knockout cells; assay type: cell-based, mouse; conditions: 50 μM, 100 μM, and 200 μM
Procedure: FIG. 5M. […] Cells treated with PBS alone were used as a negative control. Data are expressed as means±SD from three independent experiments.
To evaluate the off-target effects of the compound of Formula (III) to Sb9 proteins, the B16-Sb9 KO melanoma cells were treated with various concentrations of the compound of Formula (III). […] Furthermore, the antitumor effects of the compound of Formula (III) on the Sb9 KO mice bearing B16-Sb9 KO tumors, as compared to control group were not observed (FIG. 5N).

[8] = 17 days post-implantation, flow cytometry

T1 sequence (F7A2V8 1-374, one chain of several): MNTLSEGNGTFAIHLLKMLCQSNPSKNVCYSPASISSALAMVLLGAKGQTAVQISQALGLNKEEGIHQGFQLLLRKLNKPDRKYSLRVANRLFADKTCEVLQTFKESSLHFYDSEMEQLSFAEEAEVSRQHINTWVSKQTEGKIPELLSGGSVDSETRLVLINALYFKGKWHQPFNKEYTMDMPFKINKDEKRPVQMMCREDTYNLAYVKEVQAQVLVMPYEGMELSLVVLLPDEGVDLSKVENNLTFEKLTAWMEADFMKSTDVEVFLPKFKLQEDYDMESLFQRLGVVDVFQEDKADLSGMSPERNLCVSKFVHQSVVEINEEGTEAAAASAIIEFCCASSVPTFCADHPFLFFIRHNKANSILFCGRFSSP

Compound: O=C(O)c1ccc2ncoc2c1 [Formula (III), 1,3-benzoxazole-6-carboxylic acid]
- expression of the Sb9-GrB complex [1]: reduced the expression of the Sb9-GrB complex
- LAMP1 expression and lysosome areas [2]: significantly increased the LAMP1 expressions
- levels of stromal cells and CAFs in breast tumors ([3]; 17 days post-implantation): reduced levels
- reduction of size of 4T1-derived tumors vs control ([3]; BALB/c mice, 300 μg i.p. bid for 14 days): 2.5 fold
- median survival time (MST) ([3]; mice bearing 4T1 breast tumors, 300 μg i.p. bid for 14 days): 28 days
- binding to MBP (negative control) [4]: not to MBP
- level of effector IFNγ+ CD4+ cells in TME ([5]; 17 days post-implantation): increased level
- level of immunosuppressive IL10+CD4+ and IL10+CD8+ cells in TME ([5]; 17 days post-implantation): decreased level
- levels of immunosuppressive Tregs, TAMs, and MDSCs in melanoma vs control [5, 8]: significantly lower
- populations of CD44+ CD62L− (effector memory) CD8+, GrB+ CD8+ and IFNγ+ CD8+ in melanoma vs control [5, 8]: significantly higher
- median survival time (MST) ([5]; B16-WT tumors, 300 μg i.p. bid for 14 days (FIG. 5B)): 39 days
- median survival time (MST) ([5]; C57BL/6J, FIG. 18, Formula (III) 300 μg twice a day 14 days, anti-PD1 200 μg iv every 3 days): 36 days
- reduction of size of B16 tumors vs control ([5]; C57BL/6 mice, 300 μg i.p. bid for 14 days): 3.7 fold
- production of fibronectin and collagen I by MSC-WT cells ([6]; 48 hrs treatment): reduced the production of fibronectin and collagen I
- expression of fibronectin and collagen I by MSC-WT cells co-cultured with B16 cells ([6]; co-culture with B16-GFP cells): decreased the expression of fibronectin and collagen I
- additional apoptosis in Sb9 knockout cells (off-target) [7]: No additional apoptotic effect
